In US9150568B2, “Compositions and methods for modulating FXR” (NOVARTIS AG, priority 2010, dated 2015) one finds EC50 data, which are given here for 24 compounds.

Molecules are shown by their SMILES.

For the assay, the target named is T1, human Farnesoid X Receptor (FXR) ligand binding domain (GST-FXR LBD) (Homo sapiens, UniProt Q96RI1).
T1 construct: purchased Invitrogen
T1 sequence (Q96RI1 193-472 isoform Q96RI1-2): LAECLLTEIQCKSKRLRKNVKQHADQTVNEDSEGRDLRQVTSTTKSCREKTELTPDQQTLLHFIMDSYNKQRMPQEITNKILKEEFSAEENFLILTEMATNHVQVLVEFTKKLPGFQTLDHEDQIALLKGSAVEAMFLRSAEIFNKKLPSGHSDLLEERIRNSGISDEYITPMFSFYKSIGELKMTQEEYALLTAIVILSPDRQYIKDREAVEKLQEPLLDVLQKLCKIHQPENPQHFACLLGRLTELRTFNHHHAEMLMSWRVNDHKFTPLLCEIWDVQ
Briefly: Human GST-FXR LBD co-activator interaction assay (HTRF). Format: biochemical. The note with it: GST-FXR LBD / biotin-SRC-1 peptide FRET; response relative to GW4064; read-out: FXR Co-activator interaction assay (EC50). In short, it runs like this:
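FRET (HTRF) read-out of ligand-induced binding between GST-FXR LBD and an SRC-1 peptide, detected with anti-GST cryptate and streptavidin-XL665 in buffer with 50 mM KF. Response % was normalized to DMSO and to the maximal GW4064 response. EC50 came from a four-parameter fit.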
(In general: Time-resolved FRET reads energy transfer from a long-lived donor to a nearby acceptor.)
By EC50 is commonly meant the concentration giving half of the maximal effect. Consider `Cn1ccc2c(N3C4CC[C@H]3CC(OCc3c(-c5ccccc5OC(F)(F)F)noc3C3CC3)C4)ncc(C(=O)O)c21` (stereo partly drawn) [Example 30-58], for which the EC50 was 210 nM. With `O=C(O)c1cnn2ccc(N3C4CC[C@H]3CC(OCc3c(-c5ccccc5OC(F)(F)F)noc3C3CC3)C4)nc12` (stereo partly drawn) [Example 30-59], the concentration for a half-maximal effect (EC50) is 92 nM. `O=C(O)c1cnc2ccc(N3C4CC[C@H]3CC(OCc3c(-c5ccccc5OC(F)(F)F)noc3C3CC3)C4)nn12` (stereo partly drawn) [Example 30-60]: the concentration for a half-maximal effect (EC50) amounted to 94 nM. In the case of `O=C(O)c1ccc2nc(N3C4CC[C@H]3CC(OCc3c(-c5ccc(F)cc5F)noc3C3CC3)C4)sc2c1` (stereo partly drawn) [Example 30-61] it was 2 nM. Turning to `O=C(O)c1ccc(N2C3CC[C@H]2CC(OCc2c(-c4ccc(F)cc4F)noc2C2CC2)C3)nc1` (stereo partly drawn) [Example 30-63], the EC50 turned out to be 57 nM. On to `COc1cc(C(=O)O)cc2sc(N3C4CC[C@H]3CC(OCc3c(-c5cccc(F)c5F)noc3C3CC3)C4)nc12` (stereo partly drawn) [Example 30-64], for which the 50% effective concentration (EC50) is 7 nM.

With `O=C(O)c1ccc(N2[C@@H]3CC[C@H]2C[C@@H](OCc2c(-c4cccc(F)c4F)noc2C2CC2)C3)nc1` [Example 30-65], the concentration for a half-maximal effect (EC50) amounted to 86 nM. As for `Cc1cc(C(=O)O)nc(N2C3CC[C@H]2CC(OCc2c(-c4cccc(F)c4F)noc2C2CC2)C3)n1` (stereo partly drawn) [Example 30-66], the EC50 is 220 nM. Turning to `COc1cc(C(=O)O)cc2sc(N3[C@@H]4CC[C@H]3C[C@@H](OCc3c(-c5ccccc5F)noc3C3CC3)C4)nc12` [Example 30-67], the half-maximal effective concentration (EC50) came out at 0.5 nM. With `Cc1cc(C(=O)O)nc(N2C3CC[C@H]2CC(OCc2c(-c4ccccc4F)noc2C2CC2)C3)n1` (stereo partly drawn) [Example 30-68], the concentration giving a half-maximal response (EC50) was 13 nM. As for `O=C(O)c1ccc(N2[C@@H]3CC[C@H]2C[C@@H](OCc2c(-c4ccccc4F)noc2C2CC2)C3)nc1` [Example 30-69], the figure is 21 nM; as for `O=C(O)c1ccc2nc(N3C4CC[C@H]3CC(OCc3c(-c5c(Cl)cccc5Cl)noc3C3CC3)C4)sc2c1` (stereo partly drawn) [Example 30-70], 0.2 nM. On to `COc1cc(C(=O)O)cc2sc(N3[C@@H]4CC[C@H]3C[C@@H](OCc3c(-c5c(Cl)cccc5Cl)noc3C3CC3)C4)nc12` [Example 30-71], for which the half-maximal effective concentration (EC50) came to 0.3 nM. As for `O=C(O)c1ccc(N2C3CC[C@H]2CC(OCc2c(-c4c(Cl)cccc4Cl)noc2C2CC2)C3)nc1` (stereo partly drawn) [Example 30-72], the figure is 1.4 nM; as for `O=C(O)c1ccc(N2C3CC[C@H]2CC(OCc2c(-c4cccnc4C(F)(F)F)noc2C2CC2)C3)nc1` (stereo partly drawn) [Example 30-73], 74 nM; as for `O=C(O)c1csc(N2C3CC[C@H]2CC(OCc2c(-c4ccccc4OC(F)(F)F)noc2C2CC2)C3)n1` (stereo partly drawn) [Example 30-74], 3 nM. As for `O=C(O)c1cnc(N2C3CC[C@H]2CC(OCc2c(-c4ccccc4OC(F)(F)F)noc2C2CC2)C3)s1` (stereo partly drawn) [Example 30-75], the concentration giving a half-maximal response (EC50) stood at 17 nM. For the compound `O=C(O)c1cnc(N2C3CC[C@H]2CC(OCc2c(-c4ccccc4C(F)(F)F)noc2C2CC2)C3)s1` (stereo partly drawn) [Example 30-76], the EC50 was found to be 16 nM. In the case of `O=C(O)c1cn2nc(N3C4CC[C@H]3CC(OCc3c(-c5ccccc5C(F)(F)F)noc3C3CC3)C4)ccc2n1` (stereo partly drawn) [Example 31-2], the concentration giving a half-maximal response (EC50) was determined as 13 nM. As to `O=C(O)c1cc2nc(N3C4CC[C@H]3CC(OCc3c(-c5ccccc5OC(F)(F)F)noc3C3CC3)C4)ccn2n1` (stereo partly drawn) [Example 31-3], the EC50 was 2 nM. In the case of `O=C(O)c1cc2nc(N3C4CC[C@H]3CC(OCc3c(-c5ccccc5C(F)(F)F)noc3C3CC3)C4)ccn2n1` (stereo partly drawn) [Example 31-4], the EC50 was determined as 4 nM. As for `O=C(O)c1cn2nc(N3[C@@H]4CC[C@H]3C[C@@H](OCc3c(-c5c(F)cccc5F)noc3C3CC3)C4)ccc2n1` [Example 31-5], the figure is 10 nM; as for `Cc1cccc(F)c1-c1noc(C2CC2)c1CO[C@H]1C[C@H]2CC[C@@H](C1)N2c1ccc2nc(C(=O)O)cn2n1` [Example 31-6], 9 nM. As for `O=C(O)c1cnn2ccc(N3[C@@H]4CC[C@H]3C[C@@H](OCc3c(-c5ccccc5OC(F)(F)F)noc3C3CC3)C4)cc12` [Example 32-2], the EC50 is 4 nM.
